Data as given in ChEMBL document CHEMBL3272195, “Synthesis and antimicrobial activity of certain 6H-1,2,4-oxadiazin-3(2H)-ones” (1977).
Values after ≈ are worked out from the molar mass of the structure shown. Active and inactive are the calls of the source. No cut-off for these calls is given here.

What was measured:
Escherichia coli [1] = experiment: Antimicrobial activity against Escherichia coli after 24 hrs by broth dilution assay; assay type: functional
Pseudomonas aeruginosa [2] = experiment: Antimicrobial activity against Pseudomonas aeruginosa after 24 hrs by broth dilution assay; assay type: functional
Staphylococcus aureus = experiment: Antimicrobial activity against Staphylococcus aureus after 24 hrs by broth dilution assay; assay type: functional
[3] = system: Trichophyton mentagrophytes; experiment: Antimicrobial activity against Trichophyton mentagrophytes after 48 hrs by broth dilution assay; assay type: functional
Candida albicans = experiment: Antimicrobial activity against Candida albicans after 48 hrs by broth dilution assay; assay type: functional
Human alphaherpesvirus 1 = experiment: Antiviral activity against Herpes simplex virus type 1; assay type: functional, organism-based
Human respirovirus 3 = experiment: Antiviral activity against Parainfluenza virus 3; assay type: functional, organism-based
Human rhinovirus A13 = experiment: Antiviral activity against Rhinovirus A13; assay type: functional
Escherichia coli [4] = experiment: Antimicrobial activity against Escherichia coli paper disc treated with 24 hrs urine sample from 100 mg/kg, po compound treated ICR mouse measured after 18 to 24 hrs by disc diffusion assay; assay type: functional, organism-based; design: dose 100 mg/kg
Pseudomonas aeruginosa [5] = experiment: Antimicrobial activity against Pseudomonas aeruginosa paper disc treated with 24 hrs urine sample from 100 mg/kg, po compound treated ICR mouse measured after 18 to 24 hrs by disc diffusion assay; assay type: functional, organism-based; design: dose 100 mg/kg

MIC (Escherichia coli [1]) [µM]	MIC (Pseudomonas aeruginosa [2]) [µM]	MIC (Staphylococcus aureus) [µM]	MIC [3] [µM]	MIC (Candida albicans) [µM]	SMILES	Activity (Human alphaherpesvirus 1)	Activity (Human respirovirus 3)	Activity (Human rhinovirus A13)	Activity (Escherichia coli [4])	Activity (Pseudomonas aeruginosa [5])
10 (≈ 1.15 µg/mL)	80 (≈ 9.21 µg/mL)	320 (≈ 36.8 µg/mL)	> 400	> 400	NC1=NC(=O)NOC1	inactive	inactive	inactive	Active	Active
20 (≈ 5 µg/mL)	20 (≈ 5 µg/mL)	80 (≈ 20 µg/mL)	> 400	> 400	O=C1CON(C(=O)OCc2ccccc2)C(=O)N1	inactive	inactive	inactive	inactive	inactive
> 400	> 400	> 400	> 400	> 400	NNC1=NC(=O)NOC1	inactive	inactive	inactive		
> 400	> 400	> 400	160 (≈ 23.4 µg/mL)	400 (≈ 58.5 µg/mL)	CN1OCC(=S)NC1=O	inactive	inactive	inactive		
320 (≈ 65.7 µg/mL)	> 400	400 (≈ 82.1 µg/mL)	> 400	> 400	O=C1N=C(NCc2ccccc2)CON1	inactive	inactive	inactive		
10 (≈ 1.16 µg/mL)	40 (≈ 4.64 µg/mL)	20 (≈ 2.32 µg/mL)	> 400	> 400	O=C1CONC(=O)N1	inactive	inactive	inactive	inactive	inactive
> 400	> 400	> 400	160 (≈ 35.6 µg/mL)	320 (≈ 71.1 µg/mL)	O=C1NC(=S)CON1Cc1ccccc1	inactive	inactive	inactive		
160 (≈ 25.9 µg/mL)	320 (≈ 51.9 µg/mL)	80 (≈ 13 µg/mL)	> 400	> 400	CCOC(=O)CONC(N)=O					
< 5	20 (≈ 2.64 µg/mL)	10 (≈ 1.32 µg/mL)	320 (≈ 42.3 µg/mL)	320 (≈ 42.3 µg/mL)	O=C1NOCC(=S)N1	inactive	inactive	inactive	inactive	inactive
320 (≈ 90 µg/mL)	320 (≈ 90 µg/mL)	160 (≈ 45 µg/mL)	> 400	> 400	O=C1N=C(NC(c2ccccc2)c2ccccc2)CON1	inactive	inactive	inactive		
> 400	> 400	> 400	> 400	> 400	O=C1N=C(NO)CON1	inactive	inactive	inactive		
160 (≈ 22.9 µg/mL)	> 400	320 (≈ 45.8 µg/mL)	> 400	> 400	CN(C)C1=NC(=O)NOC1	inactive	inactive	inactive		
320 (≈ 41.3 µg/mL)	> 400	320 (≈ 41.3 µg/mL)	320 (≈ 41.3 µg/mL)	> 400	CNC1=NC(=O)NOC1	inactive	inactive	inactive		
